Measured values reported in patent US7202069B2, “(R)-2-octanol dehydrogenases, methods for producing the enzymes, DNA encoding the enzymes, and methods for producing alcohols using the enzymes” (Daicel Chemical Industries, Ltd., priority 2000, dated 2007).
Read-outs that look alike come from different tables or passages of the source.

What was measured:
[1] = system: (R)-2-octanol dehydrogenase; test: Residual (R)-2-octanol dehydrogenase activity after treatment with reagents; type: biochemical, Pichia finlandica
Method: The (R)-2-octanol dehydrogenase was treated with various reagents at 30° C. for 30 minutes and the (R)-2-octanol dehydrogenase activity was measured.

[2] = system: (R)-2-octanol dehydrogenase; test: Oxidation activity of (R)-2-octanol dehydrogenase on various alcohols, NAD+ as coenzyme; type: biochemical, Pichia finlandica; conditions: oxidation activity of (R)-2-octanol taken as 100
Method: (§1) On the other hand, oxidation activity on (R)-2-octanol can be measured as follows. The activity can be validated by incubating at 30° C. the reaction mixture containing Tris-HCl buffer (pH 8.5, 50 mM), 2.5 mM NAD^+, 5 mM (R)-2-octanol, and the enzyme and by measuring increase of absorbance at 340 nm accompanying generation of NADH. 1 U was defined as the amount of the enzyme catalyzing generation of 1 μmol of NADH for 1 minute.
The (R)-2-octanol dehydrogenase was reacted with various alcohols and its oxidation activity was measured.

[3] = system: (R)-2-octanol dehydrogenase; test: Reduction activity of the enzyme of Example 3 on various ketones, NADH as coenzyme; type: biochemical, Pichia finlandica
Method: (§2) In the present invention, reduction activity on 4-chloroacetoacetic acid ester can be measured as follows. The activity can be validated by incubating at 30° C. the reaction mixture containing potassium phosphate buffer (pH 6.5, 100 mM), 0.2 mM NADH, 20 mM ethyl 4-chloroacetoacetate, and the enzyme and by measuring decrease of absorbance at 340 nm accompanying decrease of NADH. 1 U was defined as the amount of the enzyme catalyzing decrease of 1 μmol of NADH for 1 minute. Quantification of proteins can be done by dye binding method using the protein assay kit (BIORAD).
The enzyme of Example 3 was reacted with various ketones and its reduction activity was measured.

[4] = system: (R)-2-octanol dehydrogenase; test: Oxidation activity of (R)-2-octanol dehydrogenase on various alcohols, NAD+ as coenzyme; type: biochemical, Candida utilis; conditions: oxidation activity of (R)-2-octanol taken as 100
Method: as §1
The (R)-2-octanol dehydrogenase was reacted with various alcohols and its oxidation activity was measured. […] As a result, the relative activity was 6.7% for (S)-2-octanol, 8.3% for 2-propanol, and 86% for (R)-1-phenylethanol.

[5] = system: (R)-2-octanol dehydrogenase; test: Reduction activity of the enzyme of Example 35 on various ketones, NADH as coenzyme; type: biochemical, Candida utilis
Method: as §2
The enzyme of Example 35 was also reacted with various ketones and its reduction activity was measured. […] As a result, the relative activity was 26.6% for 2-octanone and 25.3% for acetophenone.

[6] = system: (R)-2-octanol dehydrogenase; test: Activation of (R)-2-octanol dehydrogenase by reagents; type: biochemical, Pichia finlandica; conditions: for Relative activity: reagent 1 mM, activity without reagents = 100
Method: The activation effect of (R)-2-octanol dehydrogenase in various reagents was measured.

[7] = (R)-2-octanol oxidation activity of the purified enzyme (specific activity, optimum pH, optimum temperature); type: biochemical, Pichia finlandica; conditions: after Superdex 200 gel filtration
Method: as §1
The highest specific activity of the purified enzyme was about 91 U/mg-protein which is the activity of oxidizing (R)-2-octanol.
We examined (R)-2-octanol dehydrogenase activity of the enzyme obtained from Example 3 changing pH by using phosphate buffer (KPB), Tris-HCl buffer, Glycine buffer. […] As a result, the optimum pH of the enzyme was from 8.0 to 11.0.
We examined (R)-2-octanol oxidation activity of the enzyme obtained from Example 3 changing only temperature in the standard reaction conditions. […] As a result, the optimum temperature of the enzyme was from 45 to 55.

[8] = reagent 1 mM, 30° C. for 30 minutes, enzyme treated without reagents = 100
[9] = reduction activity of 4-chloroacetoacetic acid ethyl ester taken as 100, NADH as coenzyme
[10] = 4-chloroacetoacetic acid ethyl ester taken as 100, NADH
[11] = treated at 30° C. for 30 minutes
[12] = reagent 0.01 mM, 30° C. for 30 minutes, enzyme treated without reagents = 100

O[C@H](CS)[C@H](O)CS (racemic) [Dithiothreitol]
Residual activity [1, 8]: 123%

CCCCCCCCO [1-Octanol]
relative activity, oxidation reaction ([2]; NAD+ as coenzyme): 1.72

CC(O)COc1ccccc1 (stereo not drawn) [1-Phenoxy-2-propanol]
relative activity, oxidation reaction ([2]; NAD+ as coenzyme): 15.5

CC(=O)COc1ccccc1 [1-Phenoxy-2-propanone]
relative activity, reduction reaction [3, 9]: 54.2

CCC(C)=O [2-Butanone]
relative activity, reduction reaction [3, 9]: 7.99

CCCCC(C)O (stereo not drawn) [2-Hexanol]
relative activity, oxidation reaction ([2]; NAD+ as coenzyme): 54.1

CCCCCCC(C)O (stereo not drawn) [2-Octanol]
relative activity, oxidation reaction ([2]; NAD+ as coenzyme): 77.8
relative activity, oxidation reaction ([4]; NAD+ as coenzyme): 8.3

CCCCCCC(C)=O [2-Octanone]
relative activity, reduction reaction [3, 10]: 31.2%
relative activity, reduction reaction [3, 9]: 31.2
relative activity, reduction reaction [5, 10]: 26.6%
relative activity, reduction reaction [5, 9]: 26.6

CC(C)O [2-Propanol]
relative activity, oxidation reaction ([2]; NAD+): 6.8%
relative activity, oxidation reaction ([2]; NAD+ as coenzyme): 6.79
relative activity, oxidation reaction ([4]; NAD+): 8.3%

CC(=O)CCO [4-Hydroxy-2-butanone]
relative activity, reduction reaction [3, 9]: 0.691

C[C@@H](O)CCO [(R)-1,3-butanediol]
relative activity, oxidation reaction ([2]; NAD+ as coenzyme): 1.29

OCC[C@@H](O)c1ccccc1 [(R)-1-phenyl-1,3-propanediol]
relative activity, oxidation reaction ([2]; NAD+ as coenzyme): 0.344

C[C@@H](O)c1ccccc1 [(R)-1-phenylethanol]
relative activity, oxidation reaction ([2]; NAD+): 255%
relative activity, oxidation reaction ([2]; NAD+ as coenzyme): 255
relative activity, oxidation reaction ([4]; NAD+): 86%
relative activity, oxidation reaction ([4]; NAD+ as coenzyme): 86.7

CCCCCC[C@@H](C)O [(R)-2-octanol]
relative activity, oxidation reaction ([2]; NAD+ as coenzyme): 100
relative activity, oxidation reaction ([4]; NAD+ as coenzyme): 100

C[C@H](O)CCO [(S)-1,3-butanediol]
relative activity, oxidation reaction ([2]; NAD+ as coenzyme): 0.516

OCC[C@H](O)c1ccccc1 [(S)-1-phenyl-1,3-propanediol]
relative activity, oxidation reaction ([2]; NAD+ as coenzyme): 0.258

C[C@H](O)c1ccccc1 [(S)-1-phenylethanol]
relative activity, oxidation reaction ([2]; NAD+ as coenzyme): 1.81
relative activity, oxidation reaction ([4]; NAD+ as coenzyme): 6.7

CCCCCC[C@H](C)O [(S)-2-octanol]
relative activity, oxidation reaction ([2]; NAD+): 4.7%
relative activity, oxidation reaction ([2]; NAD+ as coenzyme): 4.73
relative activity, oxidation reaction ([4]; NAD+): 6.7%
relative activity, oxidation reaction ([4]; NAD+ as coenzyme): 6.7

CC(C)=O [Acetone]
relative activity, reduction reaction [3, 9]: 1.82

CC(=O)c1ccccc1 [Acetophenone]
relative activity, reduction reaction [3, 10]: 45%
relative activity, reduction reaction [3, 9]: 45.3
relative activity, reduction reaction [5, 10]: 25.3%
relative activity, reduction reaction [5, 9]: 25.3

O.O.[Ba+2].[Cl-].[Cl-] [BaCl2Ñ2H2O]
Residual activity [1, 8]: 102%

[Ca+2].[Cl-].[Cl-] [CaCl2Ñ2H2O, calcium chloride]
Residual activity [1]: 174%
effect of reagent on the enzyme (inhibition / stabilization), in words [1]: stabilized

O.O.O.O.O.O.[Cl-].[Cl-].[Co+2] [CoCl2Ñ6H2O]
Residual activity [1, 8]: 99%

O=S(=O)([O-])[O-].[Cu+2] [CuSO4]
Residual activity [1, 8]: 100%

OC1CCCCC1 [Cyclohexanol]
relative activity, oxidation reaction ([2]; NAD+ as coenzyme): 0.172

O=C([O-])CN(CCN(CC(=O)[O-])CC(=O)O)CC(=O)O.[Na+].[Na+] [EDTAÑ2Na, ethylenediaminetetraacetic acid 2Na]
Residual activity [1, 8]: 81%
effect of reagent on the enzyme (inhibition / stabilization), in words [1, 11]: slightly inhibited

CCO [Ethanol]
relative activity, oxidation reaction ([2]; NAD+ as coenzyme): 0.688

CCOC(=O)CC(=O)CCl [Ethyl 4-chloroacetoacetate]
relative activity, reduction reaction [3, 9]: 100
relative activity, reduction reaction [5, 9]: 100

CCOC(=O)C[C@@H](C)O [Ethyl (R)-3-hydroxybutyrate]
relative activity, oxidation reaction ([2]; NAD+ as coenzyme): 41.1

CCOC(=O)C[C@@H](O)CCl [Ethyl (R)-4-chloro-3-hydroxybutyrate]
relative activity, oxidation reaction ([2]; NAD+ as coenzyme): 0.172

CCOC(=O)C[C@H](C)O [Ethyl (S)-3-hydroxybutyrate]
relative activity, oxidation reaction ([2]; NAD+ as coenzyme): 1.03

CCOC(=O)C[C@H](O)CCl [Ethyl (S)-4-chloro-3-hydroxybutyrate]
relative activity, oxidation reaction ([2]; NAD+ as coenzyme): 2.24

CCOC(=O)CC(C)=O [Ethyl acetoacetate]
relative activity, reduction reaction [3, 9]: 106

[Cl][Fe][Cl] [FeCl2]
Residual activity [1, 8]: 93%

[Cl][Hg][Cl] [HgCl2, mercury chloride]
Residual activity [1, 12]: 62%
effect of reagent on the enzyme (inhibition / stabilization), in words [1, 11]: slightly inhibited

[Cl-].[K+] [KCl]
Residual activity [1, 8]: 106%

[Cl-].[Cl-].[Mg+2] [MgCl2Ñ6H2O, magnesium chloride]
Residual activity [1]: 185%
effect of reagent on the enzyme (inhibition / stabilization), in words [1]: stabilized
Relative activity [6]: 122%

O=S(=O)([O-])[O-].[Mg+2] [MgSO4]
Relative activity [6]: 125%

CCN1C(=O)C=CC1=O [N-ethylmaleimide]
Residual activity [1, 8]: 147%
effect of reagent on the enzyme (inhibition / stabilization), in words [1, 11]: stabilized

Cl.NO [NH2OHÑHCl]
Residual activity [1, 12]: 99%

O.O.O.O.O.O.[Cl][Ni][Cl] [NiCl2Ñ6H2O]
Residual activity [1, 8]: 103%

O=S(=O)(F)Cc1ccccc1 [Phenylmethylsulfonyl fluoride]
Residual activity [1, 8]: 111%

CCC=O [Propionaldehyde]
relative activity, reduction reaction [3, 9]: 18.4

O=c1c(O)c(-c2ccc(O)c(O)c2)oc2cc(O)cc(O)c12 [Quercetin]
Residual activity ([1]; reagent 0.1 mM, 30° C. for 30 minutes, enzyme treated without reagents = 100): 99%

[Cl-].[Cl-].[Zn+2] [ZnCl2]
Residual activity [1, 8]: 96%
Relative activity [6]: 105%

O.O.O.O.O.O.O.O=S(=O)([O-])[O-].[Zn+2] [ZnSO4Ñ7H2O]
Relative activity [6]: 110%

[Mg] [magnesium]
activation of the enzyme, in words [6]: activated

[Mn+2] [manganese]
activation of the enzyme, in words [6]: activated

c1cnc2c(c1)ccc1cccnc12 [o-Phenanthroline]
Residual activity [1, 8]: 162%
effect of reagent on the enzyme (inhibition / stabilization), in words [1, 11]: stabilized

O=S(=O)(O)O [sulphate ion]
activation of the enzyme, in words [6]: activated

[Zn+2] [zinc]
activation of the enzyme, in words [6]: activated

(R)-2-butanol
relative activity, oxidation reaction ([2]; NAD+ as coenzyme): 49.3

(S)-2-butanol
relative activity, oxidation reaction ([2]; NAD+ as coenzyme): 7.31

MnSO4Ñ4-5H2O
Relative activity [6]: 121%

manganese chloride [MnCl2Ñ4H2O]
Residual activity [1, 8]: 185%
effect of reagent on the enzyme (inhibition / stabilization), in words [1, 11]: stabilized
Relative activity [6]: 114%

B1: (R)-2-octanol dehydrogenase from Pichia finlandica: NAD+-dependent (R)-2-octanol dehydrogenase purified from Pichia finlandica DSM 70280; amino acid sequence SEQ ID NO:2 (protein, listed as Pichia finlandica)
chain: MSYNFHNKVAVVTGALSGIGLSVAKKFLQLGAKVTISDVSGEKKYHETVVALKAQNLNTDNLHYVQADSSKEEDNKKLISETLATFGGLDIVCANAGIGKFAPTHETPFDVWKKVIAVNLNGVFLLDKLAINYWLEKSKPGVIVNMGSVHSFVAAPGLAHYGAAKGGVKLLTQTLALEYASHGIRVNSVNPGYISTPLIDEVPKERLDKLVSLHPIGRLGRPEEVADAVAFLCSQEATFINGVSLPVDGGYTAQ
highest specific activity of the purified enzyme, oxidizing (R)-2-octanol [7]: about 91 U/mg-protein
